Where a name gives a salt, the structure may show the parent alone. Read-outs that look alike come from different tables or passages of the source.
Biological target: T1, rat brain farnesyl protein transferase (Rattus norvegicus, UniProt Q02293+Q04631)
T1 construct: 40-fold purified rat brain farnesyl protein transferase; from tissue; host or cells: rat brain
Experiment: Protein:farnesyltransferase (PFT/FPT) inhibitory activity assay
Format: biochemical

[1] = Hepes (without 5 mM phosphate), read-out: Farnesyl Protein Transferase Inhibition, Hepes, IC50
[2] = Hepes/5 mM PO4^-3, pH 7.4, read-out: Farnesyl Protein Transferase Inhibition, Hepes/5 mM PO4^-3, IC50

Row | SMILES | IC50 [1] [µM] | IC50 [2] [µM]
1 | O=C(N[C@@H](Cc1c[nH]cn1)C(=O)OCc1ccsc1)C(Cc1cccc2ccccc12)Cc1cccc2ccccc12 [Example 20, (S)-3-(1H-Imidazol-4-yl)-2-(3-naphthalen-1-yl-2-naphthalen-1-ylmethyl-propionylamino)-propionic acid, thiophen-3-ylmethyl ester] | 3.5 | 2.4
2 | CCN(CC)CCOC(=O)[C@H](Cc1c[nH]cn1)NC(=O)C(Cc1cccc2ccccc12)Cc1cccc2ccccc12 [Example 21, (S)-3-(1H-Imidazol-4-yl)-2-(3-naphthalen-1-yl-2-naphthalen-1-ylmethyl-propionylamino)-propionic acid, 2-diethylamino-ethyl ester] | 21 | 9
3 | NC(=O)[C@H](Cc1c[nH]cn1)NC(=O)C(Cc1cccc2ccccc12)Cc1cccc2ccccc12 [Example 24, (S)-N-[1-Carbamoyl-2-(1H-imidazol-4-yl)-ethyl]-3-naphthalen-1-yl-2-naphthalen-1-ylmethyl-propionamide] | 5.3 | 3.8
4 | O=C(N[C@@H](Cc1c[nH]cn1)C(=O)NCCCn1ccnc1)C(Cc1cccc2ccccc12)Cc1cccc2ccccc12 [Example 28] | 8.1 | 4.2
5 | O=C(N[C@@H](Cc1c[nH]cn1)C(=O)NCCO)C(Cc1cccc2ccccc12)Cc1cccc2ccccc12 [Example 29, (S)-N-[1-(2-Hydroxy-ethylcarbamoyl)-2-(1H-imidazol-4-yl)-ethyl]-3-naphthalen-1-yl-2-naphthalen-1-ylmethyl-propionamide] | 3.2 | 3.7
6 | CCN(CC)CCNC(=O)[C@H](Cc1c[nH]cn1)NC(=O)C(Cc1cccc2ccccc12)Cc1cccc2ccccc12 [Example 32] | 19 | 14
7 | CCNC(=O)[C@H](Cc1c[nH]cn1)NC(=O)C(Cc1cccc2ccccc12)Cc1cccc2ccccc12 [Example 34, (S)-N-[1-Ethylcarbamoyl-2-(1H-imidazol-4-yl)-ethyl]-3-naphthalen-1-yl-2-naphthalen-1-ylmethyl-propionamide] | 2.9 | 2
8 | O=C(N[C@@H](Cc1c[nH]cn1)C(=O)NCCOCc1ccccc1)C(Cc1cccc2c1CCCC2)Cc1cccc2c1CCCC2 [Example 38, (S)-N-[1-(2-Benzyloxy-ethylcarbamoyl)-2-(1H-imidazol-4-yl)-ethyl]-3-(5,6,7,8-tetrahydro-naphthalen-1-yl)-2-(5,6,7,8-tetrahydro-naphthalen-1-ylmethyl)-propionamide] | 0.78 | 0.85
9 | COC(=O)[C@H](Cc1c[nH]cn1)NC(=O)C(Cc1csc2ccccc12)Cc1csc2ccccc12 [Example 39, (S)-2-(3-Benzo[b]thiophen-3-yl-2-benzo[b]thiophen-3-ylmethyl-propionylamino)-3-(1H-imidazol-4-yl)-propionic acid, methyl ester] | 1.2 | 0.97
10 | O=C(N[C@@H](Cc1c[nH]cn1)C(=O)OCCO)C(Cc1cccc2ccccc12)Cc1cccc2ccccc12 [Example 42, (S)-3-(1H-Imidazol-4-yl)-2-(3-naphthalen-1-yl-2-naphthalen-1-ylmethyl-propionylamino)-propionic acid, 2-hydroxy-ethyl ester, trifluoroacetate salt] | 1.8 | 1.3
11 | CN(C)C(=O)[C@H](Cc1c[nH]cn1)NC(=O)C(Cc1cccc2ccccc12)Cc1cccc2ccccc12 [Example 43, (S)-N-[1-Dimethylcarbamoyl-2-(1H-imidazol-4-yl)-ethyl]-3-naphthalen-1-yl-2-naphthalen-1-ylmethyl-propionamide] | 5.6 | 3.8
12 | C#CCCOC(=O)[C@H](Cc1c[nH]cn1)NC(=O)C(Cc1cccc2ccccc12)Cc1cccc2ccccc12 [Example 44, (S)-3-(1H-Imidazol-4-yl)-2-(3-naphthalen-1-yl-2-naphthalen-1-ylmethyl-propionylamino)-propionic acid, but-3-ynyl ester, trifluoroacetate salt] | 0.23 | 0.21

The remaining compounds from weak to strong by IC50 [1], led by results:

Row | IC50 [1] [µM] | IC50 [2] [µM] | SMILES
13 | 26 | 15 | O=C(N[C@@H](Cc1c[nH]cn1)C(=O)NCCN1CCOCC1)C(Cc1cccc2ccccc12)Cc1cccc2ccccc12 [Example 31, (S)-N-[2-(1H-Imidazol-4-yl)-1-(2-morpholin-4-yl-ethylcarbamoyl)-ethyl]-3-naphthalen-1-yl-2-naphthalen-1-ylmethyl-propionamide]
14 | 15 | 14 | NS(=O)(=O)c1ccc(CCNC(=O)[C@H](Cc2c[nH]cn2)NC(=O)C(Cc2cccc3ccccc23)Cc2cccc3ccccc23)cc1 [Example 35]
15 | 12 | 8.7 | CCSCCNC(=O)[C@H](Cc1c[nH]cn1)NC(=O)C(Cc1cccc2ccccc12)Cc1cccc2ccccc12 [Example 26, (S)-N-[1-(2-Ethylsulfanyl-ethylcarbamoyl)-2-(1H-imidazol-4-yl)-ethyl]-3-naphthalen-1-yl-2-naphthalen-1-ylmethyl-propionamide]
16 | 5.8 | 4.3 | O=C(N[C@@H](Cc1c[nH]cn1)C(=O)OCCN1CCOCC1)C(Cc1cccc2ccccc12)Cc1cccc2ccccc12 [Example 22, (S)-3-(1H-Imidazol-4-yl)-2-(3-naphthalen-1-yl-2-naphthalen-1-ylmethyl-propionylamino)-propionic acid, 2-morpholin-4-yl-ethyl ester]
17 | 4.6 | 3.5 | CC(C)NC(=O)[C@H](Cc1c[nH]cn1)NC(=O)C(Cc1cccc2ccccc12)Cc1cccc2ccccc12 [Example 30, (S)-N-[2-(1H-Imidazol-4-yl)-1-isopropylcarbamoyl-ethyl]-3-naphthalen-1-yl-2-naphthalen-1-ylmethyl-propionamide]
18 | 2.6 | 3.2 | CC(=O)NCCSC(=O)[C@H](Cc1c[nH]cn1)NC(=O)C(Cc1cccc2ccccc12)Cc1cccc2ccccc12 [Example 40, (S)-3-(1H-Imidazol-4-yl)-2-(3-naphthalen-1-yl-2-naphthalen-1-ylmethyl-propionylamino)-thiopropionic acid, S-(2-acetylamino-ethyl)ester]
19 | 1.9 | 1.5 | O=C(N[C@@H](Cc1c[nH]cn1)C(=O)NCCn1ccnc1)C(Cc1cccc2ccccc12)Cc1cccc2ccccc12 [Example 25, (S)-N-[2-(1H-Imidazol-4-yl)-1-(2-imidazol-1-yl-ethylcarbamoyl)-ethyl]-3-naphthalen-1-yl-2-naphthalen-1-ylmethyl-propionamide]
20 | 1.1 | 1.1 | O=C(N[C@@H](Cc1c[nH]cn1)C(=O)OCCc1cccs1)C(Cc1cccc2ccccc12)Cc1cccc2ccccc12 [Example 19, (S)-3-(1H-Imidazol-4-yl)-2-(3-naphthalen-1-yl-2-naphthalen-1-ylmethyl-propionylamino)-propionic acid, 2-thiophen-2-yl-ethyl ester]
21 | 0.57 | 0.54 | O=C(N[C@@H](Cc1c[nH]cn1)C(=O)OCCOCc1ccccc1)C(Cc1cccc2ccccc12)Cc1cccc2ccccc12 [Example 18, (S)-3-(1H-Imidazol-4-yl)-2-(3-naphthalen-1-yl-2-naphthalen-1-ylmethyl-propionylamino)-propionic acid, 2-benzyloxyethyl ester]

Source: patent publication US6008372A, “Substituted dinaphthylmethyl and diheteroarylmethylacetyl histidine inhibitors of protein farnesyltransferase” (Warner-Lambert Company, priority 1998, dated 1999)
